Assay results taken from PMC8132994, “NanoFAST: structure-based design of a small fluorogen-activating protein with only 98 amino acids” (Chemical Science, 2021).

Target: T1, FAST (Halorhodospira halophila, UniProt P16113, C69G/Y94W/T95M/F96I/D97P/Y98T/Q99S/M100R/T101G)
T1 construct: gene pyp; C-terminal His6 tag in NMR structure
T1 sequence (P16113 1-125 C69G/Y94W/T95M/F96I/D97P/Y98T/Q99S/M100R/T101G): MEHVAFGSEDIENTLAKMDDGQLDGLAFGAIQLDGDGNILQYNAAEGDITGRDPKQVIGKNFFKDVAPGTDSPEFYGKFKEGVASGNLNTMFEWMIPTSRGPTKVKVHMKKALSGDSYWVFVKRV
Assay: solution NMR structure of the complex
Format: binding
Conditions: pH 7.0, 25 °C (1H NMR spectra); 13C/15N-labelled protein

## COc1cc(O)ccc1/C=C1N=C(/C=C/c2ccncc2)N(C)C\1=O [N871b]
  solution NMR structure of the complex: solved the spatial structure of the protein in complex with a promising ligand N871b
